Values after ≈ are worked out from the molar mass of the structure shown. Read-outs that look alike come from different tables or passages of the source. Non-standard residues stand in square brackets, D forms with d. Residues, ends and D or L forms follow the SMILES beside them. *: point of attachment. Lys(Me2) = CN(C)CCCC[C@H](N)C(=O)O; Octanoyl = CCCCCCCC(=O)*
Tests used:
P. aeruginosa PAO1 [1] = assay type: cell-based, Pseudomonas aeruginosa; details: PAO1, 18 h
In short: (§1)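 MIC was determined by broth microdilution following CLSI guidelines. Serially varied compound concentrations were incubated with bacterial inoculum at 5 × 10^5 CFU/mL (final) for 18 h at 37 °C. Growth was scored as turbidity by absorbance at 590 nm.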

MRSA ATCC 33592 [2] = assay type: cell-based, Staphylococcus aureus; details: ATCC 33592, 18 h
In short: as §1

S. aureus ATCC 29213 [3] = assay type: cell-based, Staphylococcus aureus; details: ATCC 29213, 18 h
In short: as §1

A. baumannii AB027 = experiment: microbe, parasite or virus in culture; assay type: cell-based, Acinetobacter baumannii; details: AB027, 18 h
In short: as §1

A. baumannii AB92247 = experiment: microbe, parasite or virus in culture; assay type: cell-based, Acinetobacter baumannii; details: AB92247, 18 h
In short: as §1

E. coli 94393 = experiment: microbe, parasite or virus in culture; assay type: cell-based, Escherichia coli; details: 94393, 18 h
In short: as §1

E. coli 94474 = experiment: microbe, parasite or virus in culture; assay type: cell-based, Escherichia coli; details: 94474, 18 h
In short: as §1

E. cloacae 118564 [4] = experiment: microbe, parasite or virus in culture; assay type: cell-based, Enterobacter cloacae; details: 118564, 18 h
In short: as §1

K. pneumoniae 113250 = experiment: microbe, parasite or virus in culture; assay type: cell-based, Klebsiella pneumoniae; details: 113250, 18 h
In short: as §1

[5] = system: P. aeruginosa PA259-96196; assay type: cell-based, Pseudomonas aeruginosa; details: for MICUTBLP: UTBLP alone
In short: (§2)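 Checkerboard synergy assay: antibiotic and OMP combined at varying concentrations with 5 × 10^5 CFU/mL inoculum (final), 37 °C, 18 h; growth read as turbidity at 590 nm. FICI = sum of FICs (MIC in combination / MIC alone); ≤0.5 synergistic, 0.5–4 additive, >4 antagonistic.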

[6] = system: P. aeruginosa PA262-101856; assay type: cell-based, Pseudomonas aeruginosa; details: for MICUTBLP: UTBLP alone
In short: as §2

P. aeruginosa PAO1 [7] = assay type: cell-based, Pseudomonas aeruginosa; details: for MICUTBLP: UTBLP alone
In short: as §2

E. cloacae 118564 [8] = assay type: cell-based, Enterobacter cloacae; details: for MICUTBLP: UTBLP alone
In short: as §2

MRSA ATCC 33592 [9] = assay type: cell-based, Staphylococcus aureus
In short: as §2

S. aureus ATCC 29213 [10] = assay type: cell-based, Staphylococcus aureus
In short: as §2

E. faecalis ATCC 29212 = assay type: cell-based, Enterococcus faecalis
In short: as §2

E. faecium ATCC 27270 = assay type: cell-based, Enterococcus faecium
In short: as §2

[11] = UTBLP in combination with novobiocin
[12] = UTBLP in combination with rifampicin
[13] = novobiocin in combination with the UTBLP
[14] = rifampicin in combination with the UTBLP
[15] = UTBLP in combination with chloramphenicol
[16] = chloramphenicol in combination with the UTBLP
[17] = UTBLP alone, plate with chloramphenicol

Question: `CCCCCCCC(=O)NCCCC[C@H](NC(=O)CCCCCCC)C(=O)N[C@@H](CCCCN(C)C)C(=O)N[C@@H](CCCCN(C)C)C(=O)N[C@@H](CCCCN(C)C)C(=O)N[C@@H](CCCCN(C)C)C(N)=O` [UTBLP 7] (Octanoyl-K(Octanoyl)[Lys(Me2)][Lys(Me2)][Lys(Me2)][Lys(Me2)]-NH2) was tested. Which MIC (P. aeruginosa PAO1 [1]) did it give?
Answer: >128 µg/mL

Question: And the MIC (MRSA ATCC 33592 [2])?
Answer: >128 µg/mL

Question: And the MIC (S. aureus ATCC 29213 [3])?
Answer: >128 µg/mL

Question: And the MIC (A. baumannii AB027)?
Answer: 128 µg/mL (≈ 125 µM)

Question: What about the MIC (A. baumannii AB92247) of the same molecule?
Answer: 32 µg/mL (≈ 31.3 µM)

Question: What about the MIC (E. coli 94393) of the same molecule?
Answer: 64 µg/mL (≈ 62.6 µM)

Question: What about the MIC (E. coli 94474) of the same molecule?
Answer: 128 µg/mL (≈ 125 µM)

Question: And the MIC (E. cloacae 118564 [4])?
Answer: > 128 µg/mL

Question: And the MIC (K. pneumoniae 113250)?
Answer: > 128 µg/mL

Question: What about the Interpretation ([5]; UTBLP + novobiocin) of the same molecule?
Answer: Additive (0.5 < x ≤ 4 is additive)

Question: And the Interpretation ([5]; UTBLP + rifampicin)?
Answer: Additive (0.5 < x ≤ 4 is additive)

Question: What about the MICUTBLP ([5]; plate with novobiocin) of the same molecule?
Answer: > 128 µg/mL

Question: And the MICUTBLP ([5]; plate with rifampicin)?
Answer: > 128 µg/mL

Question: What about the “MICUTBLP [MICcombo]” value [5, 11] of the same molecule?
Answer: 16 µg/mL

Question: What about the “MICUTBLP [MICcombo]” value [5, 12] of the same molecule?
Answer: 16 µg/mL

Question: And the “MICantibiotic [MICcombo]” value [5, 13]?
Answer: 512 µg/mL

Question: What about the “MICantibiotic [MICcombo]” value [5, 14] of the same molecule?
Answer: 8 µg/mL

Question: What about the Interpretation ([6]; UTBLP + novobiocin) of the same molecule?
Answer: Additive (0.5 < x ≤ 4 is additive)

Question: What about the Interpretation ([6]; UTBLP + rifampicin) of the same molecule?
Answer: Additive (0.5 < x ≤ 4 is additive)

Question: And the MICUTBLP ([6]; plate with novobiocin)?
Answer: > 128 µg/mL

Question: What about the MICUTBLP ([6]; plate with rifampicin) of the same molecule?
Answer: > 128 µg/mL

Question: What about the “MICUTBLP [MICcombo]” value [6, 11] of the same molecule?
Answer: 16 µg/mL

Question: And the “MICUTBLP [MICcombo]” value [6, 12]?
Answer: 16 µg/mL

Question: What about the “MICantibiotic [MICcombo]” value [6, 13] of the same molecule?
Answer: 512 µg/mL

Question: What about the “MICantibiotic [MICcombo]” value [6, 14] of the same molecule?
Answer: 512 µg/mL

Question: And the Interpretation (P. aeruginosa PAO1 [7]; UTBLP + chloramphenicol)?
Answer: Additive (0.5 < x ≤ 4 is additive)

Question: And the Interpretation (P. aeruginosa PAO1 [7]; UTBLP + niclosamide)?
Answer: Additive (0.5 < x ≤ 4 is additive)

Question: And the Interpretation (P. aeruginosa PAO1 [7]; UTBLP + novobiocin)?
Answer: Synergy (FICI ≤ 0.5 is synergistic)

Question: What about the Interpretation (P. aeruginosa PAO1 [7]; UTBLP + rifampicin) of the same molecule?
Answer: Additive (0.5 < x ≤ 4 is additive)

Question: What about the MICUTBLP (P. aeruginosa PAO1 [7]; plate with chloramphenicol) of the same molecule?
Answer: > 128 µg/mL

Question: And the MICUTBLP (P. aeruginosa PAO1 [7]; plate with niclosamide)?
Answer: > 128 µg/mL

Question: And the MICUTBLP (P. aeruginosa PAO1 [7]; plate with novobiocin)?
Answer: > 128 µg/mL

Question: And the MICUTBLP (P. aeruginosa PAO1 [7]; plate with rifampicin)?
Answer: > 128 µg/mL

Question: And the “MICUTBLP [MICcombo]” value (P. aeruginosa PAO1 [7]; [15])?
Answer: 8 µg/mL

Question: What about the “MICUTBLP [MICcombo]” value (P. aeruginosa PAO1 [7]; UTBLP in combination with niclosamide) of the same molecule?
Answer: 0.25 µg/mL

Question: What about the “MICUTBLP [MICcombo]” value (P. aeruginosa PAO1 [7]; [11]) of the same molecule?
Answer: 16 µg/mL

Question: What about the “MICUTBLP [MICcombo]” value (P. aeruginosa PAO1 [7]; [12]) of the same molecule?
Answer: 16 µg/mL

Question: What about the “MICantibiotic [MICcombo]” value (P. aeruginosa PAO1 [7]; [16]) of the same molecule?
Answer: 8 µg/mL

Question: What about the “MICantibiotic [MICcombo]” value (P. aeruginosa PAO1 [7]; niclosamide in combination with the UTBLP) of the same molecule?
Answer: 1024 µg/mL

Question: What about the “MICantibiotic [MICcombo]” value (P. aeruginosa PAO1 [7]; [13]) of the same molecule?
Answer: 128 µg/mL

Question: And the “MICantibiotic [MICcombo]” value (P. aeruginosa PAO1 [7]; [14])?
Answer: 4 µg/mL

Question: What about the Interpretation (E. cloacae 118564 [8]; UTBLP + novobiocin) of the same molecule?
Answer: Synergy (FICI ≤ 0.5 is synergistic)

Question: What about the Interpretation (E. cloacae 118564 [8]; UTBLP + rifampicin) of the same molecule?
Answer: Synergy (FICI ≤ 0.5 is synergistic)

Question: What about the MICUTBLP (E. cloacae 118564 [8]; plate with novobiocin) of the same molecule?
Answer: > 128 µg/mL

Question: And the MICUTBLP (E. cloacae 118564 [8]; plate with rifampicin)?
Answer: > 128 µg/mL

Question: And the “MICUTBLP [MICcombo]” value (E. cloacae 118564 [8]; [11])?
Answer: 16 µg/mL

Question: And the “MICUTBLP [MICcombo]” value (E. cloacae 118564 [8]; [12])?
Answer: 16 µg/mL

Question: What about the “MICantibiotic [MICcombo]” value (E. cloacae 118564 [8]; [13]) of the same molecule?
Answer: 4 µg/mL

Question: And the “MICantibiotic [MICcombo]” value (E. cloacae 118564 [8]; [14])?
Answer: 1 µg/mL

Question: What about the Interpretation (MRSA ATCC 33592 [9]; UTBLP + chloramphenicol) of the same molecule?
Answer: Additive (0.5 < x ≤ 4 is additive)

Question: And the MICUTBLP (MRSA ATCC 33592 [9]; [17])?
Answer: > 128 µg/mL

Question: And the “MICUTBLP [MICcombo]” value (MRSA ATCC 33592 [9]; [15])?
Answer: 0.25 µg/mL

Question: What about the “MICchloramphenicol [MICcombo]” value (MRSA ATCC 33592 [9]; [16]) of the same molecule?
Answer: 64 µg/mL

Question: What about the MICUTBLP (S. aureus ATCC 29213 [10]; [17]) of the same molecule?
Answer: > 128 µg/mL

Question: What about the “MICUTBLP [MICcombo]” value (S. aureus ATCC 29213 [10]; [15]) of the same molecule?
Answer: 0.25 µg/mL

Question: What about the “MICchloramphenicol [MICcombo]” value (S. aureus ATCC 29213 [10]; [16]) of the same molecule?
Answer: 8 µg/mL

Question: What about the Interpretation (E. faecalis ATCC 29212; UTBLP + chloramphenicol) of the same molecule?
Answer: Additive (0.5 < x ≤ 4 is additive)

Question: What about the MICUTBLP (E. faecalis ATCC 29212; [17]) of the same molecule?
Answer: 64 µg/mL

Question: And the “MICUTBLP [MICcombo]” value (E. faecalis ATCC 29212; [15])?
Answer: 8 µg/mL

Question: And the “MICchloramphenicol [MICcombo]” value (E. faecalis ATCC 29212; [16])?
Answer: 4 µg/mL

Question: And the Interpretation (E. faecium ATCC 27270; UTBLP + chloramphenicol)?
Answer: Additive (0.5 < x ≤ 4 is additive)

Question: What about the MICUTBLP (E. faecium ATCC 27270; [17]) of the same molecule?
Answer: 128 µg/mL

Question: And the “MICUTBLP [MICcombo]” value (E. faecium ATCC 27270; [15])?
Answer: 0.25 µg/mL

Question: What about the “MICchloramphenicol [MICcombo]” value (E. faecium ATCC 27270; [16]) of the same molecule?
Answer: 4 µg/mL

Source: article PMC8963254, “Effects of Lysine N-ζ-Methylation in Ultrashort Tetrabasic Lipopeptides (UTBLPs) on the Potentiation of Rifampicin, Novobiocin, and Niclosamide in Gram-Negative Bacteria” (Antibiotics, 2022)
